Like-named read-outs stand apart in the source and are kept apart here. Starred links: 1 amine or outer side, 2 acyl side, 3 side chain; linkers in the order of their positions; H or OH if unused. Non-standard residues stand in square brackets, D forms with d. Residues, ends and D or L forms follow the SMILES beside them. *: point of attachment. NH(3-CONH2-4-OMe-phenyl) = COc1ccc(N*)cc1C(N)=O; 3Abz(6-OMe) = COc1ccc(N[*:1])cc1C(=O)[*:2]; dOrn = NCCC[C@@H](N)C(=O)O
How the values were obtained:
fondaparinux (FONDAPX) = test: FXa chromogenic assay (absence of plasma), fondaparinux
Experimental: (§1) Human antithrombin was mixed with an anticoagulant agent (a LMWH or fondaparinux); final concentrations were 0.22 μg/mL for the LMWHs and 0.07 μg/mL for fondaparinux. […] Absorbance was read every 30 seconds over a 4 minute period in a SpectraMax 250 instrument (Molecular Devices, Inc.). EC50 values are determined by a curve-fit program (SoftMax Pro) using the following formula:
(§2) FXa Chromogenic Assay (absence of plasma). Human antithrombin was mixed with an anticoagulant (a LMWH or fondaparinux); final concentrations were 0.1 μg/mL for the LMWHs and 0.02 μg/mL for fondaparinux. […] Absorbance was read every 30 seconds over a 4 minute period in a SpectraMax 250 instrument (Molecular Devices Inc.™) The slope of absorbance vs time was calculated for each compound concentration. EC50 values were determined using a curve fit program (GraphPad Prism 5).

enoxaparin (ENOX) = test: FXa chromogenic assay (absence of plasma), enoxaparin
Experimental: as §1, §2

[1] = test system: unfractionated heparin (UFH); test: aPTT clotting assay, UFH 0.2 U/mL in plasma (Example 7); type: biochemical
Experimental: aPTT clotting Assay. Unfractionated heparin was mixed with plasma at a final concentration of 0.2 U/mL. […] The ACL Elite Hemostasis analyzer (Beckman Coulter™) was used to add aPTT reagent (HemosIL SynthASil) to supplemented plasma. Clotting was initiated by addition of CaCl2 and time to clot was recorded.

[2] = fondaparinux 0.02 μg/mL, absence of plasma
[3] = enoxaparin 0.1 μg/mL, absence of plasma

Row | Structure (SMILES) | FONDAPX (FXa) EC50 (fondaparinux (FONDAPX); [2]) | ENOX (FXa) EC50 (enoxaparin (ENOX); [3]) | UFH (aPTT) EC50 ([1]; UFH 0.2 U/mL in plasma) | FONDAPX (FXa) EC50 (fondaparinux (FONDAPX)) | ENOX (FXa) EC50 (enoxaparin (ENOX)) | UFH (aPTT) EC50 [1]
1 | CN(C)CCNC(=O)c1cc(C(=O)N[C@H]2CC[C@H](NC(=O)c3cc(C(=O)NCCN(C)C)c(OCCCCCN)cc3OCCCCCN)CC2)c(OCCCCCN)cc1OCCCCCN [Compound 5] | inactive | 23.71 µg/mL | 19.76 µg/mL | – | – | –
2 | N=C(N)NCCCCC(=O)Nc1cc(C(F)(F)F)cc(NC(=O)c2cc(C(=O)Nc3cc(C(F)(F)F)cc(NC(=O)CCCCNC(=N)N)c3SCCN)ncn2)c1SCCN [Compound 6] | inactive | 0.57 µg/mL | 29.11 µg/mL | – | – | –
3 | COc1ccc(NC(=O)[C@H](CCCNC(=N)N)NC(=O)c2cc(NC(=O)[C@H](CCCNC(=N)N)NC(=O)c3cc(NC(=O)[C@H](CCCNC(=N)N)NC(=O)c4cc(NC(=O)[C@@H](N)CCCNC(=N)N)ccc4OC)ccc3OC)ccc2OC)cc1C(N)=O [Compound 7] | 1.49 µg/mL | 0.21 µg/mL | 1.84 µg/mL | – | – | –
4 | N=C(N)NCCC[C@@H](N)C(=O)Nc1ccc(OCCNC(=N)N)c(C(=O)N[C@H](CCCNC(=N)N)C(=O)Nc2ccc(OCCNC(=N)N)c(C(=O)N[C@H](CCCNC(=N)N)C(=O)Nc3ccc(OCCNC(=N)N)c(C(N)=O)c3)c2)c1 [Compound 9] | 40.16 µg/mL | 2.90 µg/mL | 5.35 µg/mL | – | – | –
5 | COc1ccc(NC(=O)[C@@H](CCCNC(=N)N)NC(=O)c2cc(NC(=O)[C@@H](CCCNC(=N)N)NC(=O)c3cc(NC(=O)[C@@H](CCCNC(=N)N)NC(=O)c4cc(NC(=O)[C@H](N)CCCNC(=N)N)ccc4OC)ccc3OCCNC(=N)N)ccc2OCCNC(=N)N)cc1C(N)=O [Compound 11] | 7.04 µg/mL | 1.66 µg/mL | 5.79 µg/mL | – | – | –
6 | COc1ccc(NC(=O)[C@@H](CCCCN)NC(=O)c2cc(NC(=O)[C@@H](CCCCN)NC(=O)c3cc(NC(=O)[C@@H](CCCCN)NC(=O)c4cc(NC(=O)[C@H](N)CCCCN)ccc4OC)ccc3OC)ccc2OC)cc1C(N)=O [Compound 17] | 11.15 µg/mL | 0.50 µg/mL | 2.33 µg/mL | – | – | –
7 | COc1ccc(NC(=O)[C@@H](CCCNC(=N)N)NC(=O)c2cc(NC(=O)[C@@H](CCCNC(=N)N)NC(=O)c3cc(NC(=O)[C@@H](CCCNC(=N)N)NC(=O)c4cc(NC(=O)[C@H](N)CCCNC(=N)N)ccc4OCCNC(=N)N)ccc3OC)ccc2OC)cc1C(N)=O [Compound 19] | 3.35 µg/mL | 0.27 µg/mL | 2.11 µg/mL | – | – | –
8 | N=C(N)NCCC[C@@H](N)C(=O)Nc1ccc(Cl)c(C(=O)N[C@H](CCCNC(=N)N)C(=O)Nc2ccc(Cl)c(C(=O)N[C@H](CCCNC(=N)N)C(=O)Nc3ccc(Cl)c(C(=O)N[C@H](CCCNC(=N)N)C(=O)Nc4ccc(Cl)c(C(N)=O)c4)c3)c2)c1 [Compound 26] | 36.65 µg/mL | 3.93 µg/mL | 4.26 µg/mL | – | – | –
9 | COc1ccc(NC(=O)[C@@H](CCCNC(=N)N)NC(=O)CCCCNC(=N)N)cc1C(=O)N[C@H](CCCNC(=N)N)C(=O)Nc1ccc(OC)c(C(=O)N[C@H](CCCNC(=N)N)C(=O)Nc2ccc(OC)c(C(=O)N[C@H](CCCNC(=N)N)C(=O)Nc3ccc(OCCNC(=N)N)c(C(N)=O)c3)c2)c1 [Compound 27] | 2.51 µg/mL | 0.10 µg/mL | 2.19 µg/mL | – | – | –
10 | COc1ccc(NC(=O)[C@H](CCCCN)NC(=O)c2cc(NC(=O)[C@H](CCCCN)NC(=O)c3cc(NC(=O)[C@H](CCCCN)NC(=O)c4cc(NC(=O)[C@H](CCCCN)NC(C)=O)ccc4OC)ccc3OC)ccc2OC)cc1C(N)=O [Compound 28] | 3.21 µg/mL | 0.23 µg/mL | 2.28 µg/mL | – | – | –
11 | COc1ccc(NC(=O)[C@@H](CCCN)NC(=O)c2cc(NC(=O)[C@@H](CCCNC(=N)N)NC(=O)c3cc(NC(=O)[C@@H](CCCNC(=N)N)NC(=O)c4cc(NC(=O)[C@H](N)CCCN)ccc4OC)ccc3OC)ccc2OC)cc1C(N)=O [Compound 30] | – | – | – | 3.99 µg/mL | 0.28 µg/mL | 1.52 µg/mL
12 | COc1c(NC(=O)[C@@H](CCCCN)NC(=O)c2cccc(NC(=O)[C@@H](CCCCN)NC(=O)c3cccc(NC(=O)[C@@H](CCCCN)NC(=O)c4cccc(NC(=O)[C@H](N)CCCCN)c4OC)c3OC)c2OC)cccc1C(N)=O [Compound 34] | inactive | 45.00 µg/mL | inactive | – | – | –
13 | COc1ccc(C(=O)N[C@H](CCCCN)C(=O)Nc2cc(C(=O)N[C@H](CCCCN)C(=O)Nc3cc(C(=O)N[C@H](CCCCN)C(=O)Nc4cc(C(N)=O)ccc4OC)ccc3OC)ccc2OC)cc1NC(=O)[C@H](N)CCCCN [Compound 35] | inactive | 45.00 µg/mL | 30.65 µg/mL | – | – | –
14 | COc1ccc(NC(=O)[C@@H](CCCNC(=N)N)NC(=O)c2cc(NC(=O)[C@@H](CCCNC(=N)N)NC(=O)c3cc(NC(=O)[C@@H](CCCNC(=N)N)NC(=O)c4cc(NC(=O)[C@@H](CCCNC(=N)N)NC(=O)CCCCNC(=N)N)ccc4OC)ccc3OC)ccc2OC)cc1C(N)=O [Compound 38] | 1.94 µg/mL | 0.18 µg/mL | 2.37 µg/mL | – | – | –
15 | COc1ccc(NC(=O)[C@@H](CCCN)NC(=O)c2cc(NC(=O)[C@@H](CCCNC(=N)N)NC(=O)c3cc(NC(=O)[C@@H](CCCN)NC(=O)c4cc(NC(=O)[C@H](N)CCCNC(=N)N)ccc4OC)ccc3OC)ccc2OC)cc1C(N)=O [Compound 39] | – | – | – | 17.09 µg/mL | 1.11 µg/mL | 3.07 µg/mL
16 | COc1ccc(NC(=O)[C@@H](CCCN)NC(=O)c2cc(NC(=O)[C@@H](CCCN)NC(=O)c3cc(NC(=O)[C@@H](CCCN)NC(=O)c4cc(NC(=O)[C@H](N)CCCN)ccc4OC)ccc3OC)ccc2OC)cc1C(N)=O [Compound 40] | >90 µg/mL | 1.84 µg/mL | 2.88 µg/mL | – | – | –
17 | COc1ccc(NC(=O)[C@@H](CCCNC(=N)N)NC(=O)c2cc(NC(=O)[C@@H](CCCNC(=N)N)NC(=O)c3cc(NC(=O)[C@@H](CCCNC(=N)N)NC(=O)c4cc(NC(=O)[C@H](N)CCCNC(=N)N)ccc4OC)ccc3OC)ccc2OC)cc1C(=O)NCCCCCN [Compound 41] | 3.85 µg/mL | 0.16 µg/mL | 1.65 µg/mL | – | – | –
18 | COc1ccc(NC(=O)[C@@H](CCCNC(=N)N)NC(=O)c2cc(NC(=O)[C@@H](CCCNC(=N)N)NC(=O)c3cc(NC(=O)[C@H](N)CCCNC(=N)N)ccc3OC)ccc2OC)cc1C(=O)N[C@H](CCCNC(=N)N)C(N)=O [Compound 42] | 70.66 µg/mL | 4.07 µg/mL | 2.34 µg/mL | – | – | –
19 | COc1ccc(NC(=O)[C@@H](CCCCN)NC(=O)c2cc(NC(=O)[C@@H](CCCNC(=N)N)NC(=O)c3cc(NC(=O)[C@@H](CCCCN)NC(=O)c4cc(NC(=O)[C@H](N)CCCNC(=N)N)ccc4OC)ccc3OC)ccc2OC)cc1C(N)=O [Compound 43] | 4.44 µg/mL | 0.36 µg/mL | 2.33 µg/mL | – | – | –
20 | COc1ccc(NC(=O)[C@@H](C)NC(=O)CCCCNC(=N)N)cc1C(=O)N[C@H](CCCNC(=N)N)C(=O)Nc1ccc(OC)c(C(=O)N[C@H](CCCNC(=N)N)C(=O)Nc2ccc(OC)c(C(=O)N[C@H](CCCNC(=N)N)C(=O)Nc3ccc(OCCNC(=N)N)c(C(N)=O)c3)c2)c1 [Compound 44] | 2.91 µg/mL | 0.21 µg/mL | 2.38 µg/mL | – | – | –
21 | COc1ccc(NC(=O)[C@H](CCCNC(=N)N)NC(=O)c2cc(NC(=O)[C@H](CCCNC(=N)N)NC(=O)c3cc(NC(=O)[C@H](CCCNC(=N)N)NC(=O)c4cc(NC(=O)[C@@H](N)CCCNC(=N)N)ccc4OC)ccc3OC)ccc2OC)cc1C(N)=O [Compound 45] | 2.61 µg/mL | 0.23 µg/mL | 2.35 µg/mL | – | – | –
22 | COc1ccc(NC(=O)[C@@H](CCCN)NC(=O)[C@@H](CCCN)NC(=O)c2cc(NC(=O)[C@@H](CCCN)NC(=O)c3cc(NC(=O)[C@@H](CCCNC(=N)N)NC(=O)c4cc(NC(=O)[C@H](N)CCCN)ccc4OC)ccc3OC)ccc2OC)cc1C(N)=O [Compound 46] (H-[dOrn][3Abz(6-OMe)][dR][3Abz(6-OMe)][dOrn][3Abz(6-OMe)][dOrn][dOrn]-{NH(3-CONH2-4-OMe-phenyl)}) | 76.88 µg/mL | 13.76 µg/mL | inactive | – | – | –
23 | COc1ccc(NC(=O)[C@@H](CCCNC(N)=O)NC(=O)c2cc(NC(=O)[C@@H](CCCNC(=N)N)NC(=O)c3cc(NC(=O)[C@@H](CCCNC(N)=O)NC(=O)c4cc(NC(=O)[C@H](N)CCCNC(=N)N)ccc4OC)ccc3OC)ccc2OC)cc1C(N)=O [Compound 47] | – | – | – | 6.52 µg/mL | 0.36 µg/mL | 3.23 µg/mL
24 | COc1ccc(NC(=O)[C@@H](CCCN)NC(=O)c2cc(NC(=O)[C@@H](CCCNC(=N)N)NC(=O)c3cc(NC(=O)[C@@H](CCCNC(=N)N)NC(=O)c4cc(NC(=O)CCCCN)ccc4OC)ccc3OC)ccc2OC)cc1C(N)=O [Compound 48] | 3.35 µg/mL | 0.30 µg/mL | 1.72 µg/mL | – | – | –
25 | COc1ccc(NC(=O)[C@@H](CCCNC(=N)N)NC(=O)c2cc(NC(=O)[C@@H](CCCNC(=N)N)NC(=O)c3cc(NC(=O)[C@@H](CCCNC(=N)N)NC(=O)c4cc(NC(=O)[C@@H](C)NC(=O)CCCCNC(=N)N)ccc4OC)ccc3OC)ccc2OC)cc1C(N)=O [Compound 49] | 1.03 µg/mL | 0.16 µg/mL | 1.42 µg/mL | – | – | –

From patent publication US20110178104A1, “Anti-Heparin Compounds” (POLYMEDIX INC., priority 2010, published 2011)
